# Measured values published in PubChem BioAssay (NCI).
#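 All cell lines were grown in 96-well plates and treated with compound for 48 hours. GI50: concentration for 50% inhibition of growth. Definition used: TGI = concentration required for complete inhibition of growth.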
# What was measured:
# Assay in all cases: DTP human tumour cell line panel, 48 h
# [1] = tested on: SF-539 CNS
# [2] = tested on: RPMI-8226 leukemia
# [3] = tested on: NCI-H226 lung
# [4] = tested on: SK-OV-3 ovarian
# [5] = tested on: MDA-MB-435
# [6] = tested on: MCF7 breast
# [7] = tested on: HT29 colon
# [8] = tested on: NCI/ADR-RES ovarian
# [9] = tested on: SN12C renal
# [10] = tested on: M14 melanoma
# [11] = tested on: SK-MEL-28 melanoma
# [12] = tested on: RXF 393 renal
# [13] = tested on: HL-60(TB) leukemia
# [14] = tested on: BT-549 breast
# [15] = tested on: UACC-62 melanoma
# [16] = tested on: TK-10 renal
# [17] = tested on: K-562 leukemia
# [18] = tested on: T-47D breast
# [19] = tested on: MALME-3M melanoma
# [20] = tested on: COLO 205 colon
# [21] = tested on: NCI-H460 lung
# [22] = tested on: HCT-15 colon
# [23] = tested on: LOX IMVI melanoma
# [24] = tested on: OVCAR-8 ovarian
# [25] = tested on: SF-268 CNS
# [26] = tested on: U251 CNS
# [27] = tested on: NCI-H522 lung
# [28] = tested on: MOLT-4 leukemia
# [29] = tested on: 786-0 renal
# [30] = tested on: EKVX NSCLC
# [31] = tested on: UACC-257 melanoma
# [32] = tested on: CCRF-CEM leukemia
# [33] = tested on: DU-145 prostate
# [34] = tested on: HOP-62 NSCLC
# [35] = tested on: OVCAR-3 ovarian
# [36] = tested on: SW-620 colon
# [37] = tested on: SF-295 CNS
# [38] = tested on: PC-3 prostate
# [39] = tested on: ACHN renal
# [40] = tested on: HCC-2998 colon
# [41] = tested on: HS 578T breast
# [42] = tested on: OVCAR-4 ovarian
# [43] = tested on: SNB-19 CNS
# [44] = tested on: IGROV1 ovarian
# [45] = tested on: MDA-MB-231 breast
# [46] = tested on: CAKI-1 renal
# [47] = tested on: KM12 colon
# [48] = tested on: SK-MEL-2 melanoma
# [49] = tested on: NCI-H23 lung
# [50] = tested on: HCT-116 colon
# [51] = tested on: A549 NSCLC
# [52] = tested on: HOP-92 NSCLC
# [53] = tested on: UO-31 renal
# [54] = tested on: OVCAR-5 ovarian
# [55] = tested on: A498 renal
# [56] = tested on: SK-MEL-5 melanoma
smiles,measurement,setting,value
COc1cc(/C=C/c2cc(/C=C/c3ccc(O)c(OC)c3)n(-c3c(Cl)cccc3Cl)c(=O)n2)ccc1O,GI50,[1],2.18 µM
same,TGI,[1],6.92 µM
same,GI50,[2],2.96 µM
same,TGI,[2],22.7 µM
same,GI50,[3],3.27 µM
same,TGI,[3],9.44 µM
same,GI50,[4],2.78 µM
same,TGI,[4],10.6 µM
same,GI50,[5],1.63 µM
same,TGI,[5],5.98 µM
same,GI50,[6],2 µM
same,TGI,[6],11 µM
same,GI50,[7],1.77 µM
same,TGI,[7],3.36 µM
same,GI50,[8],3.53 µM
same,TGI,[8],22 µM
same,GI50,[9],4.82 µM
same,TGI,[9],19.5 µM
same,GI50,[10],2.38 µM
same,TGI,[10],6.87 µM
same,GI50,[11],2.74 µM
same,TGI,[11],10.1 µM
same,GI50,[12],2.18 µM
same,TGI,[12],4.92 µM
same,GI50,[13],2.64 µM
same,TGI,[13],14.4 µM
same,GI50,[14],2.07 µM
same,TGI,[14],6.67 µM
same,GI50,[15],2.59 µM
same,TGI,[15],7.42 µM
same,GI50,[16],2.91 µM
same,TGI,[16],10.1 µM
same,GI50,[17],3.11 µM
same,TGI,[17],> 100 µM
same,GI50,[18],3.44 µM
same,TGI,[18],22.7 µM
same,GI50,[19],3.88 µM
same,TGI,[19],15.7 µM
same,GI50,[20],2.84 µM
same,TGI,[20],8.95 µM
same,GI50,[21],3.39 µM
same,TGI,[21],11.8 µM
same,GI50,[22],2.44 µM
same,TGI,[22],9.66 µM
same,GI50,[23],1.68 µM
same,TGI,[23],3.57 µM
same,GI50,[24],3.34 µM
same,TGI,[24],10.5 µM
same,GI50,[25],3.12 µM
same,TGI,[25],13.7 µM
same,GI50,[26],2.37 µM
same,TGI,[26],6.36 µM
same,GI50,[27],1.55 µM
same,TGI,[27],3.23 µM
same,GI50,[28],3.38 µM
same,TGI,[28],22.6 µM
same,GI50,[29],2.74 µM
same,TGI,[29],8.51 µM
same,GI50,[30],3.26 µM
same,TGI,[30],14.8 µM
same,GI50,[31],3.32 µM
same,TGI,[31],11.3 µM
same,GI50,[32],3.21 µM
same,TGI,[32],70.6 µM
same,GI50,[33],3.48 µM
same,TGI,[33],13 µM
same,GI50,[34],3.41 µM
same,TGI,[34],12.8 µM
same,GI50,[35],3.19 µM
same,TGI,[35],12.1 µM
same,GI50,[36],3.11 µM
same,TGI,[36],10.5 µM
same,GI50,[37],2.87 µM
same,TGI,[37],9.52 µM
same,GI50,[38],4.68 µM
same,TGI,[38],25.3 µM
same,GI50,[39],2.84 µM
same,TGI,[39],12.7 µM
same,GI50,[40],1.83 µM
same,TGI,[40],3.53 µM
same,GI50,[41],5.48 µM
same,TGI,[41],> 100 µM
same,GI50,[42],4.61 µM
same,TGI,[42],16.9 µM
same,GI50,[43],3.54 µM
same,TGI,[43],13.2 µM
same,GI50,[44],3.01 µM
same,TGI,[44],12.3 µM
same,GI50,[45],3.65 µM
same,TGI,[45],15.1 µM
same,GI50,[46],14.6 µM
same,TGI,[46],30 µM
same,GI50,[47],2.02 µM
same,TGI,[47],5.27 µM
same,GI50,[48],3.3 µM
same,TGI,[48],12.9 µM
same,GI50,[49],2.38 µM
same,TGI,[49],6.68 µM
same,GI50,[50],1.31 µM
same,TGI,[50],5.25 µM
same,GI50,[51],4.03 µM
same,TGI,[51],15 µM
same,GI50,[52],4.22 µM
same,TGI,[52],16.4 µM
same,GI50,[53],2.74 µM
same,TGI,[53],12.3 µM
same,GI50,[54],2.76 µM
same,TGI,[54],11 µM
same,GI50,[55],3.79 µM
same,TGI,[55],13.2 µM
same,GI50,[56],2.18 µM
same,TGI,[56],4.86 µM
